{
  "source": "patent US6355799B1",
  "about": "“Substituted benzene compounds, process for their preparation, and herbicidal and defoliant compositions containing them” (ISK Americas Incorporated, priority 1997, dated 2002)",
  "format_in_all_cases": "in vivo",
  "key": {"[1]": {"tested_on": "redroot pigweed (Amaranthus retroflexus, AMARE)", "test": "Pre-emerge test, greenhouse herbicide activity screening", "details": "pre-emerge, rated 14 days after application, 0 = no damage, 100 = complete death", "procedure,_shortened": "(§1)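 Rating: 0–100 visual injury, 14 DAA. Application: acetone, 187 l/ha, 15–1000 g ai/ha, flat-fan track sprayer with nozzle 40–45 cm above soil or canopy. Post-emerge runs used 0.25% v/v surfactant on 2–3 leaf plants.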"}, "[2]": {"tested_on": "barnyardgrass (Echinochloa crus-galli, ECHCG)", "test": "Pre-emerge test, greenhouse herbicide activity screening", "details": "pre-emerge, rated 14 days after application, 0 = no damage, 100 = complete death", "procedure,_shortened": "as §1"}, "[3]": {"tested_on": "common ragweed (Ambrosia artemisizfolia L., AMBEL)", "test": "Pre-emerge test, greenhouse herbicide activity screening", "details": "pre-emerge, rated 14 days after application, 0 = no damage, 100 = complete death", "procedure,_shortened": "as §1"}, "[4]": {"tested_on": "green foxtail (Setaria viridis, SETVI)", "test": "Pre-emerge test, greenhouse herbicide activity screening", "details": "pre-emerge, rated 14 days after application, 0 = no damage, 100 = complete death", "procedure,_shortened": "as §1"}, "[5]": {"tested_on": "ivyleaf morningglory (Ipomoea hederacea, IPOHE)", "test": "Pre-emerge test, greenhouse herbicide activity screening", "details": "pre-emerge, rated 14 days after application, 0 = no damage, 100 = complete death", "procedure,_shortened": "as §1"}, "[6]": {"tested_on": "johnsongrass (Sorghum halepense, SORHA)", "test": "Pre-emerge test, greenhouse herbicide activity screening", "details": "pre-emerge, rated 14 days after application, 0 = no damage, 100 = complete death", "procedure,_shortened": "as §1"}, "[7]": {"tested_on": "lambsquarters (Chenopodium album, CHEAL)", "test": "Pre-emerge test, greenhouse herbicide activity screening", "details": "pre-emerge, rated 14 days after application, 0 = no damage, 100 = complete death", "procedure,_shortened": "as §1"}, "[8]": {"tested_on": "large crabgrass (Digitaria sanguinalis, DIGSA)", "test": "Pre-emerge test, greenhouse herbicide activity screening", "details": "pre-emerge, rated 14 days after application, 0 = no damage, 100 = complete death", "procedure,_shortened": "as §1"}, "[9]": {"tested_on": "sicklepod (Cassia obtusifolia, CASOB)", "test": "Pre-emerge test, greenhouse herbicide activity screening", "details": "pre-emerge, rated 14 days after application, 0 = no damage, 100 = complete death", "procedure,_shortened": "as §1"}, "[10]": {"tested_on": "velvetleaf (Abutilon theophrasti, ABUTH)", "test": "Pre-emerge test, greenhouse herbicide activity screening", "details": "pre-emerge, rated 14 days after application, 0 = no damage, 100 = complete death", "procedure,_shortened": "as §1"}, "[11]": {"tested_on": "field corn (Zea mays L., var. Dekalb 535, CORN)", "test": "Pre-emerge test, crop safety", "details": "pre-emerge, rated 14 days after application, 0 = no damage, 100 = complete death", "procedure,_shortened": "(§2)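 Sandy loam pots; pre-emerge: sown 1 d pre-spray, surface-watered after, then bottom-watered. Post-emerge: sown 8–21 d before, 2–3 leaf stage, + 0.25% v/v NIS, bottom-watered. Acetone, 187 l/ha track spray, 15–1000 g ai/ha. 0–100 injury score, day 14.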"}, "[12]": {"tested_on": "upland rice (Oryza sp., var. Tebonnet, RICE)", "test": "Pre-emerge test, crop safety", "details": "pre-emerge, rated 14 days after application, 0 = no damage, 100 = complete death", "procedure,_shortened": "as §2"}, "[13]": {"tested_on": "barnyardgrass (Echinochloa crus-galli, ECHCG)", "test": "Post-emerge test, greenhouse herbicide activity screening", "details": "phytotoxicity rating 0-100 (0 no damage, 100 complete death), 14 days after application", "procedure,_shortened": "(§3)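 Plants grown in 10 cm pots of sandy loam mix received acetone-dissolved compounds through a moving flat-fan nozzle. Doses ranged from 15 to 1000 g ai/ha. Pre-emerge pots were seeded one day earlier, post-emerge pots 8–21 days earlier. Fourteen days on, each pot was graded 0–100 for damage.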"}, "[14]": {"tested_on": "green foxtail (Setaria viridis, SETVI)", "test": "Post-emerge test, greenhouse herbicide activity screening", "details": "phytotoxicity rating 0-100 (0 no damage, 100 complete death), 14 days after application", "procedure,_shortened": "as §3"}, "[15]": {"tested_on": "ivyleaf morningglory (Ipomoea hederacea, IPOHE)", "test": "Post-emerge test, greenhouse herbicide activity screening", "details": "phytotoxicity rating 0-100 (0 no damage, 100 complete death), 14 days after application", "procedure,_shortened": "as §3"}, "[16]": {"tested_on": "johnsongrass (Sorghum halepense, SORHA)", "test": "Post-emerge test, greenhouse herbicide activity screening", "details": "phytotoxicity rating 0-100 (0 no damage, 100 complete death), 14 days after application", "procedure,_shortened": "as §3"}, "[17]": {"tested_on": "lambsquarters (Chenopodium album, CHEAL)", "test": "Post-emerge test, greenhouse herbicide activity screening", "details": "phytotoxicity rating 0-100 (0 no damage, 100 complete death), 14 days after application", "procedure,_shortened": "as §3"}, "[18]": {"tested_on": "large crabgrass (Digitaria sanguinalis, DIGSA)", "test": "Post-emerge test, greenhouse herbicide activity screening", "details": "phytotoxicity rating 0-100 (0 no damage, 100 complete death), 14 days after application", "procedure,_shortened": "as §3"}, "[19]": {"tested_on": "redroot pigweed (Amaranthus retroflexus, AMARE)", "test": "Post-emerge test, greenhouse herbicide activity screening", "details": "phytotoxicity rating 0-100 (0 no damage, 100 complete death), 14 days after application", "procedure,_shortened": "as §3"}, "[20]": {"tested_on": "sicklepod (Cassia obtusifolia, CASOB)", "test": "Post-emerge test, greenhouse herbicide activity screening", "details": "phytotoxicity rating 0-100 (0 no damage, 100 complete death), 14 days after application", "procedure,_shortened": "as §3"}, "[21]": {"tested_on": "velvetleaf (Abutilon theophrasti, ABUTH)", "test": "Post-emerge test, greenhouse herbicide activity screening", "details": "phytotoxicity rating 0-100 (0 no damage, 100 complete death), 14 days after application", "procedure,_shortened": "as §3"}, "[22]": {"tested_on": "field corn (Zea mays L., var. Dekalb 535, CORN)", "test": "Post-emerge test, crop safety", "details": "phytotoxicity rating 0-100 (0 no damage, 100 complete death), 14 days after application", "procedure,_shortened": "as §3"}, "[23]": {"tested_on": "upland rice (Oryza sp., var. Tebonnet, RICE)", "test": "Post-emerge test, crop safety", "details": "phytotoxicity rating 0-100 (0 no damage, 100 complete death), 14 days after application", "procedure,_shortened": "as §3"}},
  "data": [
    {"smiles": "CCOC(=O)C(C)Nc1cc(OC(F)F)cc(F)c1-n1c(=O)cc(C(F)(F)F)n(C)c1=O", "note": "(stereo not shown) [Compound 1-53]", "values": [
      {"measurement": "Pre-emerge Herbicidal Activity AMARE (phytotoxicity rating, scale 0-100)", "setting": "[1]; 63 g ai/ha", "result": 100},
      {"measurement": "Pre-emerge Herbicidal Activity AMARE (phytotoxicity rating, scale 0-100)", "setting": "[1]; 250 g ai/ha", "result": 100},
      {"measurement": "Pre-emerge Herbicidal Activity ECHCG (phytotoxicity rating, scale 0-100)", "setting": "[2]; 63 g ai/ha", "result": 0},
      {"measurement": "Pre-emerge Herbicidal Activity ECHCG (phytotoxicity rating, scale 0-100)", "setting": "[2]; 250 g ai/ha", "result": 80},
      {"measurement": "Pre-emerge Herbicidal Activity AMBEL (phytotoxicity rating, scale 0-100)", "setting": "[3]; 63 g ai/ha", "result": 50},
      {"measurement": "Pre-emerge Herbicidal Activity AMBEL (phytotoxicity rating, scale 0-100)", "setting": "[3]; 250 g ai/ha", "result": 90},
      {"measurement": "Pre-emerge Herbicidal Activity SETVI (phytotoxicity rating, scale 0-100)", "setting": "[4]; 63 g ai/ha", "result": 50},
      {"measurement": "Pre-emerge Herbicidal Activity SETVI (phytotoxicity rating, scale 0-100)", "setting": "[4]; 250 g ai/ha", "result": 95},
      {"measurement": "Pre-emerge Herbicidal Activity IPOHE (phytotoxicity rating, scale 0-100)", "setting": "[5]; 63 g ai/ha", "result": 50},
      {"measurement": "Pre-emerge Herbicidal Activity IPOHE (phytotoxicity rating, scale 0-100)", "setting": "[5]; 250 g ai/ha", "result": 95},
      {"measurement": "Pre-emerge Herbicidal Activity SORHA (phytotoxicity rating, scale 0-100)", "setting": "[6]; 63 g ai/ha", "result": 50},
      {"measurement": "Pre-emerge Herbicidal Activity SORHA (phytotoxicity rating, scale 0-100)", "setting": "[6]; 250 g ai/ha", "result": 90},
      {"measurement": "Pre-emerge Herbicidal Activity CHEAL (phytotoxicity rating, scale 0-100)", "setting": "[7]; 63 g ai/ha", "result": 100},
      {"measurement": "Pre-emerge Herbicidal Activity CHEAL (phytotoxicity rating, scale 0-100)", "setting": "[7]; 250 g ai/ha", "result": 100},
      {"measurement": "Pre-emerge Herbicidal Activity DIGSA (phytotoxicity rating, scale 0-100)", "setting": "[8]; 63 g ai/ha", "result": 40},
      {"measurement": "Pre-emerge Herbicidal Activity DIGSA (phytotoxicity rating, scale 0-100)", "setting": "[8]; 250 g ai/ha", "result": 90},
      {"measurement": "Pre-emerge Herbicidal Activity CASOB (phytotoxicity rating, scale 0-100)", "setting": "[9]; 63 g ai/ha", "result": 0},
      {"measurement": "Pre-emerge Herbicidal Activity CASOB (phytotoxicity rating, scale 0-100)", "setting": "[9]; 250 g ai/ha", "result": 50},
      {"measurement": "Pre-emerge Herbicidal Activity ABUTH (phytotoxicity rating, scale 0-100)", "setting": "[10]; 63 g ai/ha", "result": 100},
      {"measurement": "Pre-emerge Herbicidal Activity ABUTH (phytotoxicity rating, scale 0-100)", "setting": "[10]; 250 g ai/ha", "result": 100},
      {"measurement": "Pre-emerge crop damage CORN (phytotoxicity rating, scale 0-100)", "setting": "[11]; 63 g ai/ha", "result": 95},
      {"measurement": "Pre-emerge crop damage CORN (phytotoxicity rating, scale 0-100)", "setting": "[11]; 250 g ai/ha", "result": 100},
      {"measurement": "Pre-emerge crop damage RICE (phytotoxicity rating, scale 0-100)", "setting": "[12]; 63 g ai/ha", "result": 50},
      {"measurement": "Pre-emerge crop damage RICE (phytotoxicity rating, scale 0-100)", "setting": "[12]; 250 g ai/ha", "result": 90},
      {"measurement": "Post-emerge Herbicidal Activity ECHCG", "setting": "[13]; 63 g ai/ha", "result": 0},
      {"measurement": "Post-emerge Herbicidal Activity ECHCG", "setting": "[13]; 250 g ai/ha", "result": 50},
      {"measurement": "Post-emerge Herbicidal Activity SETVI", "setting": "[14]; 63 g ai/ha", "result": 0},
      {"measurement": "Post-emerge Herbicidal Activity SETVI", "setting": "[14]; 250 g ai/ha", "result": 80},
      {"measurement": "Post-emerge Herbicidal Activity IPOHE", "setting": "[15]; 63 g ai/ha", "result": 95},
      {"measurement": "Post-emerge Herbicidal Activity IPOHE", "setting": "[15]; 250 g ai/ha", "result": 100},
      {"measurement": "Post-emerge Herbicidal Activity SORHA", "setting": "[16]; 63 g ai/ha", "result": 0},
      {"measurement": "Post-emerge Herbicidal Activity SORHA", "setting": "[16]; 250 g ai/ha", "result": 40},
      {"measurement": "Post-emerge Herbicidal Activity CHEAL", "setting": "[17]; 63 g ai/ha", "result": 50},
      {"measurement": "Post-emerge Herbicidal Activity CHEAL", "setting": "[17]; 250 g ai/ha", "result": 100},
      {"measurement": "Post-emerge Herbicidal Activity DIGSA", "setting": "[18]; 63 g ai/ha", "result": 0},
      {"measurement": "Post-emerge Herbicidal Activity DIGSA", "setting": "[18]; 250 g ai/ha", "result": 50},
      {"measurement": "Post-emerge Herbicidal Activity AMARE", "setting": "[19]; 63 g ai/ha", "result": 80},
      {"measurement": "Post-emerge Herbicidal Activity AMARE", "setting": "[19]; 250 g ai/ha", "result": 100},
      {"measurement": "Post-emerge Herbicidal Activity CASOB", "setting": "[20]; 63 g ai/ha", "result": 60},
      {"measurement": "Post-emerge Herbicidal Activity CASOB", "setting": "[20]; 250 g ai/ha", "result": 95},
      {"measurement": "Post-emerge Herbicidal Activity ABUTH", "setting": "[21]; 63 g ai/ha", "result": 100},
      {"measurement": "Post-emerge Herbicidal Activity ABUTH", "setting": "[21]; 250 g ai/ha", "result": 100},
      {"measurement": "Post-emerge Herbicidal Activity CORN (crop damage)", "setting": "[22]; 63 g ai/ha", "result": 0},
      {"measurement": "Post-emerge Herbicidal Activity CORN (crop damage)", "setting": "[22]; 250 g ai/ha", "result": 30},
      {"measurement": "Post-emerge Herbicidal Activity RICE (crop damage)", "setting": "[23]; 63 g ai/ha", "result": 10},
      {"measurement": "Post-emerge Herbicidal Activity RICE (crop damage)", "setting": "[23]; 250 g ai/ha", "result": 60}
    ]}
  ]
}
